Data taken from the supplement of paper PMC11061612.

Assays:
[1] = compound: C[C@@H](Nc1cc(F)cc(F)c1)c1cc(C(=O)N(C)C)cc2c(=O)cc(N3CCOCC3)oc12 [AZD8186]
Procedure, shortened: (§1)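 Viability was measured with CellTiter-Glo 2.0 luminescence after 72 hours of dosing at a final DMSO of typically 0.2%, and scaled between blank-well and DMSO-well means. Beforehand, cancer cell lines sat 24 hours at 37°C and 5% CO2 in 1536-well plates in 7.5 μl DMEM/F12 or RPMI with 10% FBS. A non-linear mixed effects model fitted two-parameter logistic curves to the dose responses. The single-agent IC50 comes from these fits.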

[2] = compound: C=CCn1c(=O)c2cnc(Nc3ccc(N4CCN(C)CC4)cc3)nc2n1-c1cccc(C(C)(C)O)n1 [AZD1775]; conditions: max 3 µM
Procedure, shortened: as §1

[3] = compound: C[C@@H](c1ccc2nccn2c1)n1nnc2ncc(-c3cnn(C)c3)nc21 [Savolitinib]; conditions: max 1 µM
Procedure, shortened: as §1

[4] = compound: CC(=O)Nc1cccc(-n2c(=O)n(C3CC3)c(=O)c3c(Nc4ccc(I)cc4F)n(C)c(=O)c(C)c32)c1 [Trametinib]; conditions: max 1 µM
Procedure, shortened: as §1

[5] = compound: CCN(CCO)CCCOc1ccc2c(Nc3cc(CC(=O)Nc4cccc(F)c4)[nH]n3)ncnc2c1 [AZD2811]; conditions: max 1 µM
Procedure, shortened: as §1

[6] = compound: CS(=O)(=O)CCNCc1ccc(-c2ccc3ncnc(Nc4ccc(OCc5cccc(F)c5)c(Cl)c4)c3c2)o1 [Lapatinib]; conditions: max 10 µM
Procedure, shortened: as §1

[7] = compound: CC(=O)c1c(C)c2cnc(Nc3ccc(N4CCNCC4)cn3)nc2n(C2CCCC2)c1=O [Palbociclib]; conditions: max 10 µM
Procedure, shortened: as §1

[8] = compound: COc1cccc(OCCCN)c1-c1cc(Nc2cnc(C#N)cn2)n[nH]1 [Prexasertib]; conditions: max 1 µM
Procedure, shortened: as §1

[9] = compound: O=C(c1cc(Cc2n[nH]c(=O)c3ccccc23)ccc1F)N1CCN(C(=O)C2CC2)CC1 [Olaparib]; conditions: max 10 µM
Procedure, shortened: as §1

[10] = compound: COc1cc2ncnc(Nc3ccc(F)c(Cl)c3)c2cc1OCCCN1CCOCC1 [Gefitinib]; conditions: max 10 µM
Procedure, shortened: as §1

[11] = compound: C1CN(CCC1(C(=O)N[C@@H](CCO)C2=CC=C(C=C2)Cl)N)C3=NC=NC4=C3C=CN4 [Capivasertib]; conditions: max 10 µM
Procedure, shortened: as §1

[12] = compound: CCc1c2c(nc3ccc(O)cc13)-c1cc3c(c(=O)n1C2)COC(=O)[C@]3(O)CC [SN-38]; conditions: max 0.3 µM
Procedure, shortened: as §1

[13] = compound: CN(CC[C@H](CSC1=CC=CC=C1)NC2=C(C=C(C=C2)S(=O)(=O)NC(=O)C3=CC=C(C=C3)N4CCC(CC4)[C@H](C5=CC=CC=C5C6=CC=C(C=C6)Cl)O)S(=O)(=O)C(F)(F)F)CCO [AZD4320]; conditions: max 1 µM
Procedure, shortened: as §1

[14] = compound: CC1=C(C(=CC=C1)Cl)NC(=O)C2=CN=C(S2)NC3=CC(=NC(=N3)C)N4CCN(CC4)CCO [Dasatinib]; conditions: max 2 µM
Procedure, shortened: as §1

[15] = compound: NC1(c2ccc(-c3nc4ccn5c(=O)[nH]nc5c4cc3-c3ccccc3)cc2)CCC1 [MK-2206]; conditions: max 10 µM
Procedure, shortened: as §1

[16] = compound: COc1cccc2c1C(=O)c1c(O)c3c(c(O)c1C2=O)C[C@@](O)(C(=O)CO)C[C@@H]3O[C@H]1C[C@H](N)[C@H](O)[C@H](C)O1 [Doxorubicin]; conditions: max 1 µM
Procedure, shortened: as §1

[17] = compound: Cc1c2c(nn1C)CSCc1cc(n(C)n1)CSc1cc(c3ccccc3c1)OCCCc1c(C(=O)O)n(C)c3c-2c(Cl)ccc13 [AZD5991]; conditions: max 1 µM
Procedure, shortened: as §1

[18] = compound: COc1nnc2ccc(N3CCC(c4ccc(OCCN5CCN(C)C(=O)[C@H]5C)cc4)CC3)nn12 [AZD5153]; conditions: max 1 µM
Procedure, shortened: as §1

[19] = compound: C[C@@H]1COCCN1C2=NC(=NC(=C2)C3(CC3)[S@](=N)(=O)C)C4=C5C=CNC5=NC=C4 [AZD6738]; conditions: max 10 µM
Procedure, shortened: as §1

[20] = compound: CC1=CN2[C@@H](C1)C=NC3=CC(=C(C=C3C2=O)OC)OCCCCCOC4=C(C=C5C(=C4)N=C[C@@H]6CC(=CN6C5=O)C)OC [SG3199]; conditions: max 0.001 µM
Procedure, shortened: as §1

[21] = compound: COc1cc(Nc2ncc3c(n2)-c2ccc(Cl)cc2C(c2c(F)cccc2OC)=NC3)ccc1C(=O)O [Alisertib]; conditions: max 10 µM
Procedure, shortened: as §1

[22] = compound: Cc1nc(-c2cn3c(n2)-c2ccc(-c4cnn(C(C)(C)C(N)=O)c4)cc2OCC3)n(C(C)C)n1 [Taselisib]; conditions: max 10 µM
Procedure, shortened: as §1

[23] = compound: Cc1cc2ncnn2cc1Nc1ncc2c(n1)n(C1CCOCC1)c(=O)n2C [AZD7648]; conditions: max 10 µM
Procedure, shortened: as §1

[24] = compound: CC(C)n1c(=O)n(C)c2cnc3cc(F)c(-c4ccc(OCCCN5CCCCC5)nc4)cc3c21 [AZD1390]; conditions: max 0.3 µM
Procedure, shortened: as §1

[25] = compound: C[C@@H](Oc1cc(-c2cnn(C3CCNCC3)c2)cnc1N)c1c(Cl)ccc(F)c1Cl [Crizotinib]; conditions: max 10 µM
Procedure, shortened: as §1

[26] = compound: CC1(C)CCC(CN2CCN(c3ccc(C(=O)NS(=O)(=O)c4ccc(NCC5CCOCC5)c([N+](=O)[O-])c4)c(Oc4cnc5[nH]ccc5c4)c3)CC2)=C(c2ccc(Cl)cc2)C1 [Venetoclax]; conditions: max 1 µM
Procedure, shortened: as §1

[27] = compound: CN(C)CCCOc1ccc(-c2ccc3ncc4c(c3c2)n(C2CCOCC2)c(=O)n4C)cn1 [AZD0156]; conditions: max 3 µM
Procedure, shortened: as §1

[28] = compound: Cn1cnc2c(F)c(Nc3ccc(Br)cc3Cl)c(C(=O)NOCCO)cc21 [Selumetinib]; conditions: max 10 µM
Procedure, shortened: as §1

[29] = compound: N#Cc1cnc(Nc2cc(NC[C@H]3CNCCO3)c(C(F)(F)F)cn2)cn1 [SRA737]; conditions: max 10 µM
Procedure, shortened: as §1

[30] = compound: C1CC(C1)(C(=O)[O-])C(=O)[O-].N.N.[Pt+2] [Carboplatin]; conditions: max 10 µM
Procedure, shortened: as §1

[31] = compound: O=C(Nc1ccc2[nH]nc(-c3ccncc3)c2c1)[C@@H]1CCN(CC(=O)N2CCN(c3ccc(-c4ncccn4)cc3)CC2)C1; conditions: max 5 µM
Procedure, shortened: as §1

[32] = compound: O=c1[nH]cc(F)c(=O)[nH]1 [5-Fluorouracil]; conditions: max 20 µM
Procedure, shortened: as §1

[33] = compound: Nc1ccn([C@@H]2O[C@H](CO)[C@@H](O)C2(F)F)c(=O)n1 [Gemcitabine]; conditions: max 0.3 µM
Procedure, shortened: as §1

[34] = compound: C1CN(CCC1(C(=O)N[C@@H](CCO)C2=CC=C(C=C2)Cl)N)C3=NC=NC4=C3C=CN4 [AZD5363]; conditions: max 10 µM
Procedure, shortened: as §1

[35] = compound: COc1cc([C@@H]2c3cc4c(cc3[C@@H](O[C@@H]3O[C@@H]5CO[C@@H](C)O[C@H]5[C@H](O)[C@H]3O)[C@H]3COC(=O)[C@H]23)OCO4)cc(OC)c1O [Etoposide]; conditions: max 10 µM
Procedure, shortened: as §1

[36] = compound: CC(=O)O[C@H]1C(=O)[C@@]2(C)[C@H]([C@H](OC(=O)c3ccccc3)[C@]3(O)C[C@H](OC(=O)[C@H](O)[C@@H](NC(=O)c4ccccc4)c4ccccc4)C(C)=C1C3(C)C)[C@]1(OC(C)=O)CO[C@@H]1C[C@@H]2O [Paclitaxel]; conditions: max 3 µM
Procedure, shortened: as §1

Cell Line	IC50, cell viability 72 h ([1]; max 3 µM) [nM]	IC50, cell viability 72 h [2] [nM]	IC50, cell viability 72 h [3] [nM]	IC50, cell viability 72 h [4] [nM]	IC50, cell viability 72 h [5] [nM]	IC50, cell viability 72 h [6] [µM]	IC50, cell viability 72 h [7] [µM]	IC50, cell viability 72 h [8] [nM]	IC50, cell viability 72 h [9] [µM]	IC50, cell viability 72 h [10] [µM]	IC50, cell viability 72 h [11] [µM]	IC50, cell viability 72 h [12] [nM]	IC50, cell viability 72 h [13] [nM]	IC50, cell viability 72 h [14] [nM]	IC50, cell viability 72 h [15] [µM]	IC50, cell viability 72 h [16] [nM]	IC50, cell viability 72 h [17] [nM]	IC50, cell viability 72 h [18] [nM]	IC50, cell viability 72 h [19] [µM]	IC50, cell viability 72 h [20] [nM]	IC50, cell viability 72 h [21] [µM]	IC50, cell viability 72 h [22] [µM]	IC50, cell viability 72 h [23] [µM]	IC50, cell viability 72 h [24] [nM]	IC50, cell viability 72 h [25] [µM]	IC50, cell viability 72 h [26] [nM]	IC50, cell viability 72 h [27] [nM]	IC50, cell viability 72 h [28] [µM]	IC50, cell viability 72 h ([1]; max 10 µM) [nM]	IC50, cell viability 72 h [29] [µM]	IC50, cell viability 72 h [30] [µM]	IC50, cell viability 72 h [31] [nM]	IC50, cell viability 72 h [32] [µM]	IC50, cell viability 72 h [33] [nM]	IC50, cell viability 72 h [34] [µM]	IC50, cell viability 72 h [35] [µM]	IC50, cell viability 72 h [36] [nM]
ES-2 (Ovarian Carcinoma)	> 3000	476	> 1000	128	> 1000	> 10	> 10	40.1	> 10	> 10	> 10	14.5	> 1000	> 2000	4.4	> 1000	> 1000	875	3.78	> 1	0.596	> 10	> 10	> 300	> 10	> 1000	> 3000	7.43	–	–	–	–	–	–	–	–	–
HuO-3N1 (Osteosarcoma)	> 3000	> 3000	> 1000	> 1000	> 1000	> 10	> 10	529	> 10	> 10	> 10	275	> 1000	305	> 10	616	613	> 1000	> 10	> 1	> 10	6.88	> 10	> 300	> 10	> 1000	> 3000	> 10	–	–	–	–	–	–	–	–	–
HCC-44 (Lung Adenocarcinoma)	–	934	> 1000	236	> 1000	> 10	> 10	–	> 10	> 10	–	177	> 1000	705	> 10	–	> 1000	290	> 10	–	–	2.24	> 10	> 300	8.92	> 1000	> 3000	> 10	> 10000	> 10	> 10	2800	> 20	225	9.96	> 10	13.6
SNU-175 (Colorectal Carcinoma)	> 3000	365	> 1000	547	65.6	> 10	8.34	761	> 10	9.29	> 10	208	> 1000	> 2000	–	502	> 1000	236	> 10	> 1	0.377	> 10	> 10	> 300	4.58	> 1000	> 3000	> 10	–	–	–	–	–	–	–	–	–
NCI-H1563 (Lung Adenocarcinoma)	2270	> 3000	> 1000	> 1000	> 1000	> 10	> 10	> 1000	> 10	> 10	> 10	> 300	> 1000	1120	–	> 1000	> 1000	> 1000	> 10	> 1	> 10	2.48	> 10	> 300	> 10	> 1000	> 3000	> 10	–	–	–	–	–	–	–	–	–
NCI-H1155 (Non-Small Cell Lung Carcinoma)	> 3000	> 3000	> 1000	> 1000	> 1000	> 10	> 10	49.1	> 10	> 10	8.34	4.68	> 1000	> 2000	–	617	> 1000	541	5.97	> 1	9.88	> 10	> 10	> 300	> 10	> 1000	> 3000	> 10	–	–	–	–	–	–	–	–	–
786-0 (Kidney Carcinoma)	> 3000	392	> 1000	> 1000	> 1000	6.48	> 10	28.8	> 10	> 10	4.54	23	> 1000	396	–	571	> 1000	523	5.55	> 1	> 10	> 10	> 10	> 300	> 10	> 1000	> 3000	> 10	–	–	–	–	–	–	–	–	–
